From patent US20120115895A1, “TRICYCLIC INDOLE-DERIVED SPIRO DERIVATIVES AS CRTH2 MODULATORS” (Merck Serono S.A., priority 2009, published 2012)

Columns and labels:
[1] = test system: OVA-induced eosinophil recruitment in lung; experiment: OVA-induced lung eosinophilia in mice; assay type: in vivo, BALB/c mice; conditions: oral route, dose of 30 mg/Kg
Description: BALB/c mice (6-8 weeks old) were immunized with ovalbumin (10 μg i.p) on day 0 and 7. In order to elicit a local inflammatory response in the lung, mice were challenged between day's 15-17 with a nebulised solution of ovalbumin (10 μg/ml; De Vilibiss Ultraneb 2000, once daily for 30 min during the 3 days). On each separate day between 15 and 17 each animal received via oral gavage the test compound, at t−1 h and t+7 h with respect to OVA exposure at t=0 h. Eight hours after the final OVA challenge, bronchoalveolar lavage (BAL) was then carried out. Total cell numbers in the BAL fluid samples were measured using a haemocytometer. Cytospin smears of the BAL fluid samples were prepared by centrifugation at 1200 rpm for 2 min at room temperature and stained using a DiffQuik stain system (Dade Behring) for differential cell counts.

CRTH2 [2] = target: T1, CRTH2 (Homo sapiens, UniProt Q9Y5Y4); experiment: Radioligand binding Scintillation Proximity Assay ([3H]PGD2, hCRTH2-CHO cell membranes); design: host or cells: CHO cells
T1 sequence (Q9Y5Y4 1-395): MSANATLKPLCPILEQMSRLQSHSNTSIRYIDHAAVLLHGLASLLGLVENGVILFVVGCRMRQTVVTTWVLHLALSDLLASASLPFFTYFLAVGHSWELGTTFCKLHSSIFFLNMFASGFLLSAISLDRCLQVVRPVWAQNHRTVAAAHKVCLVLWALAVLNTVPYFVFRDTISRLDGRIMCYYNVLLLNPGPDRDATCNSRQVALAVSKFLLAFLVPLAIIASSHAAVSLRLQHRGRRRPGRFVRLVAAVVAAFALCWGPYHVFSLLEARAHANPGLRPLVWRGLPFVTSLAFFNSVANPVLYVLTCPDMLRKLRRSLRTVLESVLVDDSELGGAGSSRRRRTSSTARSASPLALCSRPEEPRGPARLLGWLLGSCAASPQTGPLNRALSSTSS
Description: Adherent CHO cells expressing hCRTH2 (Euroscreen, Belgium) were cultured in 225 cm2 cell culture flasks (Corning, USA) in 30 ml of medium. After two rinses of phosphate buffered saline (PBS), cells were harvested in 10 ml of PBS containing 1 mM EDTA, centrifuged at 500×g for 5 min at 4° C. and frozen at −80° C. The pellet was re-suspended in 50 mM Tris-HCl, pH 7.4, 2 mM EDTA, 250 mM Sucrose, containing protease inhibitor cocktail tablets, (Complete EDTA-free, Roche, Germany) and incubated 30 min at 4° C. Cells were disrupted by nitrogen cavitation (Parr Instruments, USA) at 4° C. (800 p.s.i. for 30 min), and centrifuged at 500×g for 10 min at 4° C. Pellet containing nuclei and cellular debris was discarded and supernatant was centrifuged 60 min at 4° C. at 45000×g. Membrane pellet was re-suspended in storage buffer (10 mM HEPES/KOH pH 7.4, 1 mM EDTA, 250 mM sucrose, protease inhibitor cocktail tablets) using Dounce homogenization and frozen in liquid nitrogen, and stored at −80° C.
The inhibitory activity can be investigated by a radioligand binding Scintillation Proximity Assay (SPA) (Sawyer et al., Br. J. Pharmocol 2002, 137, 1163-72). The SPA radioligand binding assay was performed at room temperature in binding buffer (10 mM HEPES/KOH pH 7.4, 10 mM MnC12, with protease inhibitor cocktail tablets), containing 1.5 nM [3H]PGD2 (Perkin Elmer), 10-50 μg/ml of hCRTH2—CHO cell membrane protein and 2 mg/ml of Wheat-germ agglutinin Scintillation Proximity Assay beads (RPNQ0001, GE-Healthcare) in a final volume of 100 μl in 96 well plates (Corning, USA). Non-specific binding was determined in the presence of 10 μM PGD2 (Cayman, USA). Competing Compounds of Formula (I) were diluted in dimethylsulphoxide so that the total volume of dimethylsulfoxide was kept constant at 1% dimethylsulphoxide (Me2SO). Serial dilutions of 100 μM to 100 pM were prepared and 10 μl each of the compounds of Formula (I) stock solutions were added to the binding assay reagents and incubated for 90 min with agitation at room temperature. Binding activity was determined by using a 1450 Micro-beta scintillation counter (Wallac, UK).

CRTH2 [3] = target: T1, CRTH2; experiment: PGD2-induced eosinophil cell shape assay in human whole blood; assay type: cell-based; design: endogenous in cells; host or cells: eosinophils in human whole blood from healthy volunteers; conditions: 10 nM PGD2
Description: The test compounds were diluted in dimethylsulphoxide so that the total volume of dimethylsulfoxide was kept constant at 2% dimethylsulphoxide (Me2SO). Serial dilutions of 200 μM to 0.09 μM were prepared. Samples of 90 μl of human blood from healthy volunteers (Centre de Transfusion Sanguine de Genève) were pre-incubated in polypropylene Falcon tubes (BD 352063) for 20 minutes in a water bath at 37° C. with 10 μl of diluted compounds. For CRTH2 activation, 100 μl PGD2 (Cayman 12010) at 20 nM was added (10 nM final) to each tube and cells were maintained at 37° C. For negative control cells were treated with PBS. After 10 minutes, cell activation was stopped with 120 μl Formaldehyde 10% (4% final, Fluka 41650) and cells were rested for 10 minutes at room temperature. Fixed cells were transferred into polypropylene tubes and then treated for 1 hour in a water bath at 37° C. with 2 ml of Triton—Surfact-Amps X-100 (Pierce 28314) at 0.166% (0.13% Triton final). After several washes with PBS (red cells lysed progressively during washes, two washes are necessary), cells were analyzed by flow cytometry on a FACSCalibur.

[4] = In vivo pharmacokinetic evaluation in mouse; design: species or system C57BL/6 female mice
Description: (§1) In order to study the pharmacokinetic (PK) profile of test compounds in vivo, Sprague Dawley male rats or C57BL/6 female mice were dosed intravenously or after oral gavage. For both species, test compounds were dosed in solution at 1 mg/kg for i.v. route (10% ethanol, 10% N,N-dimethylacetamide, 30% propylene glycol, 50% water, v/v) and in suspension at 5 mg/kg (0.5% carboxymethylcellulose suspension, containing 0.25% Tween 20 in water) for oral gavage. PK profile in rat was obtained from 3 animals per dosing route and mouse PK profile was determined from 3 animals for each time points. The volume of administration was 2 mL/kg for i.v. dosing in both species and either 5 mL/kg (rat) or 10 mL/kg (mouse) for oral gavage. Blood samples (100 µL/time point) were collected at 0.083 (5 min), 0.25, 0.5, 1, 4, 7 and 24 hours post-dose for i.v. dosing, and at 0.5, 1, 4, 7 and 24 h for oral dosing, into heparin-Li+ containing tubes. For rats, all blood samples were collected trough a catheter in the carotid artery (placed in the artery the day before the experiment), under light isoflurane anesthesia, and stored on ice until centrifugation and plasma isolation. For mouse, blood samples were collected from intracardiac puncture at sacrifice at each time point and processed as described above for the rat. Plasma samples were stored frozen until analysis (−20° C. to −70° C.). For bioanalysis, samples were processed by protein precipitation (acetonitrile, formic acid 0.1%, addition of 3 volumes) after addition of one internal standard and analysed using a sensitive and selective LC/MS/MS method. An aliquot of the resulting supernatant was subject to LC/MS/MS analysis using a reverse phase column (Waters Xterra, C8, (3.5 μm particle size, 2.1×50 mm) and a short gradient (1 min) from (Solvent A) 85% water, 15% acetonitrile and 0.1% formic acid to (Solvent B) 90% acetonitrile, 10% water and 0.1% formic acid followed by isocratic conditions of Solvent B for 3.5 min at 0.4 mL/min. Column effluent was monitored using a Sciex API 4000 triple quadrupole mass spectrometer with a Turbo V electrospray ion source. Unknown concentrations of test compounds were determined using a calibration curve ranging from 1 to 3000 ng/mL.

[5] = In vivo pharmacokinetic evaluation in rat; design: species or system Sprague Dawley male rats
Description: as §1

Structure (SMILES): CN1C(=O)N(Cc2cc(Cl)ccc2F)C(=O)C12C(=O)N(CC(=O)O)c1ccc(Cl)cc12 (single isomer, unassigned; (+)) [Example 2, (+)-[5′-chloro-1-(5-chloro-2-fluorobenzyl)-3-methyl-2,2′,5-trioxospiro[imidazolidine-4,3′-indol]-1′(2′H)-yl]acetic acid]
- inhibition of OVA-induced eosinophil recruitment in lung [1]: 79%
- IC50 (CRTH2 [2]; 1.5 nM [3H]PGD2, hCRTH2-CHO membranes, SPA, read-out: IC50 binding): 45 nM
- IC50 (CRTH2 [2]; comparison table with (+)-Enantiomer, read-out: Binding IC50): 68 nM
- IC50 (CRTH2 [3]): 150 nM
- Cmax ([4]; female, C57BL/6, mouse, plasma, mice, po, 5 mg/Kg): 691 ng/mL
- oral bioavailability in mouse ([4]; mouse, in words): significant improvement
- Fz in mice ([4]; oral bioavailability, mice, 5 mg/kg po, 1 mg/kg i.v.): 39%
- Cmax ([5]; male, Sprague Dawley, rat, plasma, rats, po, 5 mg/Kg): 489 ng/mL
- Fz in rats ([5]; oral bioavailability, rats, 5 mg/kg po, 1 mg/kg i.v.): 37%
- oral bioavailability in rat ([5]; rat, in words): significant improvement
